Results: PMC8153708, “Inhibition of soluble epoxide hydrolase by phytochemical constituents of the root bark of Ulmus davidiana var. japonica” (Journal of Enzyme Inhibition and Medicinal Chemistry, 2021)

Target: T1, soluble epoxide hydrolase (sEH) (Homo sapiens, UniProt P34913)
T1 construct: purchased Cayman 10011669
T1 sequence (P34913 1-555): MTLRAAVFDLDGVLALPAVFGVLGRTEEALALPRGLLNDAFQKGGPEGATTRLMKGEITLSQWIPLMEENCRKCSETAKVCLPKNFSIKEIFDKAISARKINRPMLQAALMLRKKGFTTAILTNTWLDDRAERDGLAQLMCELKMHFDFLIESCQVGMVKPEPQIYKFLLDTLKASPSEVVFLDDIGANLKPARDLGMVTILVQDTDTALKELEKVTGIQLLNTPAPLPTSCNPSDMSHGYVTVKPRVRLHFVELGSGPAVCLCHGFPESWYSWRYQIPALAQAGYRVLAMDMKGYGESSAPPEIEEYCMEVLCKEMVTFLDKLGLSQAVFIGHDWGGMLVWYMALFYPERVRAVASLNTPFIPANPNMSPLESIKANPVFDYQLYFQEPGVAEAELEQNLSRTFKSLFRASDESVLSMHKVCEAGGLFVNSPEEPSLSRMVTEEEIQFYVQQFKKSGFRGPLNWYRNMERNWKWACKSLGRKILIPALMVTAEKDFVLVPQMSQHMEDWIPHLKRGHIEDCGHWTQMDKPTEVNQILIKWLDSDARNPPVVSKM
Experiment: sEH inhibition assay (PHOME fluorescent substrate)
Format: biochemical
Details: 37 °C, mean ± SEM; for inhibition at 100 µM: 100 μM compound, after 40 min, read-out: Inhibition of compounds on sEH, 100 μM (%); for IC50: tested three times, read-out: Inhibition of compounds on sEH, IC50
Description: The sEH assay was performed as described previously, with minor modifications. For determining inhibitory activity, 130 µL of ∼83 µg/mL sEH in 25 mM bis-Tris–HCl buffer (pH 7.0) containing 0.1% BSA was added to either 20 µL of inhibitor dissolved in MeOH, or MeOH. Next, 50 µL of the 10 µM substrate (PHOME) was added to each mixture and incubated at 37 °C to allow for sEH hydrolysis.
Inhibitory activity was calculated using the following equations: (1) Inhibitoryactivityrate(%)=[(ΔC–ΔI)/ΔC]×100 where ΔC and ΔI are the intensity of the control and inhibitor, respectively, after 40 min. (2) y=y0+(a×x/b+x) where y0 is the minimum value of the y-axis, a is the difference between the maximum and minimum values, and b is the x value at 50% of the a value.
The results were analysed using Sigma Plot (Systat Software Inc., San Jose, CS).

SMILES | inhibition at 100 µM [%] | IC50 [µM]
O=C1OC2Cc3c(O)cc(OC4OCC(O)(CO)C4O)cc3OC2c2ccc(O)c(O)c21 [Compound 1, (6aS,12aR)-3,4,8-trihydroxy-6a-7-dihydroisochromeno[4,3-b]chromen-5(12aH)-one-10-O-β-apiofuranoside] | 59.4 ± 2.5 | 14.5 ± 0.5
O=C1CC(c2ccccc2)Oc2cc(O)c(C3OC(CO)C(O)C(O)C3O)c(O)c21 [Compound 2, pinocembrin 6-C-β-D-glucoside] | 91.8 ± 4.5 | 11.4 ± 2.3
O=C1CC(c2ccc(O)cc2)Oc2cc(O)c(C3OC(CO)C(O)C(O)C3O)c(O)c21 [Compound 3, naringenin-6-C-β-D-glucopyranoside] | < 38 | 
OCc1ccc(O)cn1 [Compound 4, 6-hydroxymethyl-3-pyridinol] | 65.9 ± 0.8 | 26.3 ± 4.5
Oc1cc(O)c2c(c1)O[C@H](c1ccc(O)c(O)c1)[C@@H](O)C2 [Compound 5, (+)-catechin] | < 38 | 
OCC1(O)COC(Oc2cc(O)c3c(c2)OC(c2ccc(O)c(O)c2)C(O)C3)C1O (stereo not drawn) [Compound 6, catechin-7-O-β-apiofuranoside] | 69.8 ± 2.2 | 16 ± 3.2
COc1cc(C2Oc3c(OC)cc(CCCO)cc3C2CO)ccc1OC1OC(C)C(O)C(O)C1O (centres unmarked) [Compound 7, icariside E4] | 55.6 ± 0.7 | 23 ± 0.7
COc1cc(C2Oc3c(OC)cc(CCCO)cc3C2CO[C@@H]2OC[C@@H](O)[C@H](O)[C@H]2O)ccc1O (stereo partly drawn) [Compound 8, 2,3-dihydro-2–(4-hydroxy-3-methoxyphenyl)-5–(3-hydroxypropyl)-7-methoxy-3-benzofuranylmethyl β-D-xylopyranoside] | 64.8 ± 1.4 | 36.9 ± 2.6
O=C(O)c1ccc(O)c(O)c1 [Compound 9, protocatechuic acid] | < 38 | 
O=C1c2c(O)cc(O)cc2OC(c2cc(O)cc(O)c2)C1O (centres unmarked) [Compound 10, 3,5,7-trihydroxy-2–(3,5-dihydroxyphenyl) chroman-4-one] | 70.7 ± 0.4 | 16.1 ± 3.2
